# Peptide text beside a SMILES is read from it.
# Tests used:
# S. aureus TISTR 517 [1] = assay: Broth microdilution MIC/MBC (CLSI); format: cell-based, Staphylococcus aureus; settings: broth microdilution, CAMHB, 37 °C 24 h, triplicate
# Protocol: The broth microdilution method was performed following the guidelines of the Clinical and Laboratory Standards Institute (CLSI). Test strains including S. aureus TISTR 517 and MRSA strains 142, 1096, and 2468 were cultured on MH agar at 37 °C for 18 h. A single colony from each strain was suspended in 0.85% NaCl until it reached a turbidity of 0.1 OD at 625 nm (1 × 10^8 CFU/mL). The bacterial cells were then diluted to 5 × 10^6 CFU/mL using cation-adjusted Mueller–Hinton broth (CAMHB). Ten microliters of the cell suspension were added to each well of a 96-well plate to make the total volume in each well 100 µL. The AMP was added to achieve final concentrations ranging from 0.125 to 64 µg/mL. Vancomycin and cefoxitin were used as positive controls, while antibiotic-free samples were used as negative controls. The plate was incubated at 37 °C for 24 h. Each experiment was performed in triplicate. The MIC was determined as the lowest concentration that inhibited visible bacterial growth. For the MBC, 100 µL from each dilution was spread on MH agar and incubated at 37 °C for 24 h. The MBC was the lowest concentration at which no bacterial colonies appeared on the agar plates.
# α-chymotrypsin = target: T1, α-chymotrypsin (Bos taurus, UniProt P00766); assay: Stability to protease digestion (activity retention); format: in vitro ADME; settings: 32 µg/mL, α-chymotrypsin 1 mg/mL, agar well diffusion read-out vs MRSA strain 2468, % of untreated sample, mean ± SD, n = 3
# T1 construct: purchased Sigma-Aldrich
# Protocol: (§1) The AMP solution was prepared in sterile purified water and adjusted to a final concentration of 32 µg/mL. To determine thermal stability, the AMP was exposed to temperatures of 30, 40, 60, 80, and 100 °C, as well as to autoclaving at 121 °C and 15 psi for 15 and 30 min. The susceptibility of the AMP to enzymatic degradation was examined by treating it with proteinase K, trypsin, and α-chymotrypsin (each at 1 mg/mL, Sigma-Aldrich, Warren, MI, USA), representing different proteolytic mechanisms. The AMP’s compatibility with surfactants was assessed by incubating it with 1% SDS, 1% CTAB, and 1% Triton X-100 (AppliChem GmbH, Darmstadt, Germany). Additionally, the effect of pH variations on AMP integrity was tested by adjusting the solution to pH 1, 4, 8, 10, and 14. The pH was neutralized to the original pH after incubation before conducting antibacterial activity tests. […] Stability data were expressed as residual activity percentages relative to the untreated sample (mean ± SD), and statistical significance was evaluated using two-way ANOVA and Tukey’s post hoc test, with a p-value < 0.05 considered significant.
# proteinase K = target: T2, proteinase K (Parengyodontium album, UniProt P06873); assay: as above; format: in vitro ADME; settings: 32 µg/mL, proteinase K 1 mg/mL, agar well diffusion read-out vs MRSA strain 2468, % of untreated sample, mean ± SD, n = 3
# T2 construct: purchased Sigma-Aldrich
# T2 sequence (P06873 106-384): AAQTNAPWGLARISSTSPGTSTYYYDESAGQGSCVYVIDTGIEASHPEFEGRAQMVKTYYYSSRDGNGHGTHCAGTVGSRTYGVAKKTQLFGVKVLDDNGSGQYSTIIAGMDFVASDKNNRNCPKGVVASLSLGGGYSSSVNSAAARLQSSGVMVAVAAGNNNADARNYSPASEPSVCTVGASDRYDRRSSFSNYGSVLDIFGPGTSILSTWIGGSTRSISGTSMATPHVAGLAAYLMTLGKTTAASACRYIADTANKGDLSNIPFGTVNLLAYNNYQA
# Protocol: as §1
# egg albumin = assay: Albumin denaturation assay (in vitro anti-inflammatory); format: biochemical, hen; settings: PBS pH 7.2, 37 °C 15 min then 70 °C 5 min, OD 660 nm, mean ± SD, n = 3
# Protocol: The reaction mixture consisted of 25 μL of egg albumin (derived from fresh hen eggs), 350 μL of PBS (pH 7.2, 0.1 M), and 250 μL of AMP or PBS (used as a reference). The mixtures were pre-incubated at 37 °C for 15 min, followed by denaturation at 70 °C for 5 min. After a 5 min cooling period on ice, the optical density (OD) at 660 nm was measured using a spectrophotometer. […] The percentage inhibition of albumin denaturation was calculated using the following equation:Inhibition of albumin denaturation (%) = [1 − (Absorbancesample/Absorbancecontrol)] × 100
# S. aureus TISTR 517 [2] = assay: Sytox Green uptake assay (membrane permeabilization); format: cell-based, Staphylococcus aureus; settings: 10 µM Sytox Green, ex 504/em 523 nm, over 24 h
# Protocol: (§2) The Sytox Green uptake assay was conducted to assess membrane permeabilization associated with loss of membrane integrity. The fluorescence would be detected from a Sytox Green–DNA complex. […] Triton X-100 (0.125–2%) and an untreated sample were used as positive and negative controls, respectively. Fluorescence intensities were recorded 5 min before sample addition across all groups to ensure cell integrity prior to the experiment. […] For MRSA strain 2468, fluorescence intensity was higher than the positive control at the time of sample addition and remained concentration-dependent.
# (§3) The membrane permeabilization of bacterial cells was determined by the increase in fluorescence intensity caused by the Sytox Green–DNA complex. The fluorescence intensity was observed over time for 24 h. The inset graphs show the expanded view of the fluorescence baseline before sample addition and the fluorescence intensity during the initial 60 min after sample addition. The increase in fluorescence intensity over the entire treatment period was expressed as fold changes, comparing different sample concentrations to the untreated condition of S. aureus TISTR 517 (c) and MRSA strain 2468 (d).
# (§4) The Sytox Green uptake assay was performed to evaluate the disruption of cell membrane integrity induced by the AMP [67]. An overnight culture (16 h) of MRSA strain 2468 was harvested and washed three times with sterile PBS (pH 7.4) supplemented with 0.2% CAMHB as a diluent. The cell suspension was then diluted with the same diluent until the OD at 625 nm was 0.1 (1 × 10^8 CFU/mL). An aliquot (100 µL) of the diluted cells was added to each well, followed by incubation with 10 µM Sytox Green (Thermo Fisher Scientific Inc., Waltham, MA, USA) in the dark for 15 min. […] Triton X-100 (AppliChem GmbH, Darmstadt, Germany) was used as a positive control and prepared at final concentrations ranging from 0.125% to 2%. These concentrations were used to compare the level of cell membrane permeability induced by the AMP. Membrane permeability was assessed by measuring fluorescence intensity using a microplate reader (Thermo Scientific Inc., Waltham, MA, USA) at excitation and emission wavelengths of 504 nm and 523 nm, respectively, over a 24 h period following AMP addition. Significant differences in fluorescence intensity (p-value < 0.05) were analyzed using two-way ANOVA and Tukey’s post hoc test for multiple comparisons between treated and untreated conditions.
# MRSA strain 2468 = assay: as above; format: cell-based, Staphylococcus aureus; settings: 10 µM Sytox Green, ex 504/em 523 nm, over 24 h
# Protocol: as §2, §3, §4
smiles,measurement,setting,value
CC(C)C[C@H](NC(=O)[C@H](CC(=O)O)NC(=O)[C@H](CS)NC(=O)[C@H](Cc1c[nH]cn1)NC(=O)[C@H](CS)NC(=O)[C@@H]1CCCN1C(=O)[C@@H](NC(=O)[C@H](CC(C)C)NC(=O)[C@H](CS)NC(=O)CNC(=O)[C@H](Cc1c[nH]c2ccccc12)NC(=O)[C@@H](NC(=O)[C@H](CC(=O)O)NC(=O)[C@@H](NC(=O)CNC(=O)[C@H](CS)NC(=O)CNC(=O)CNC(=O)[C@@H](N)CCC(=O)O)C(C)C)[C@@H](C)O)[C@@H](C)O)C(=O)N[C@@H](Cc1ccccc1)C(=O)N[C@@H](CS)C(=O)N[C@H](C(=O)N[C@H](C(=O)O)[C@@H](C)O)[C@@H](C)O [FN33 AMP] (H-EGGCGVDTWGCLTPCHCDLFCTT-OH),MIC,S. aureus TISTR 517 [1],16 µg/mL
same,Antibacterial Activity Retention of FN33 AMP (%) Against MRSA Strain 2468,α-chymotrypsin; 1 h,0.00 ± 0.00 %
same,Antibacterial Activity Retention of FN33 AMP (%) Against MRSA Strain 2468,α-chymotrypsin; 6 h,0.00 ± 0.00 %
same,Antibacterial Activity Retention of FN33 AMP (%) Against MRSA Strain 2468,α-chymotrypsin; 12 h,0.00 ± 0.00 %
same,Antibacterial Activity Retention of FN33 AMP (%) Against MRSA Strain 2468,proteinase K; 1 h,0.00 ± 0.00 %
same,Antibacterial Activity Retention of FN33 AMP (%) Against MRSA Strain 2468,proteinase K; 6 h,0.00 ± 0.00 %
same,Antibacterial Activity Retention of FN33 AMP (%) Against MRSA Strain 2468,proteinase K; 12 h,0.00 ± 0.00 %
same,% Inhibition of Albumin Denaturation,egg albumin; 50 µg/mL,"4.85 ± 0.93 *^,† %"
same,% Inhibition of Albumin Denaturation,egg albumin; 100 µg/mL,"17.75 ± 0.97 *^,† %"
same,% Inhibition of Albumin Denaturation,egg albumin; 250 µg/mL,34.39 ± 1.82 %
same,% Inhibition of Albumin Denaturation,egg albumin; 500 µg/mL,57.16 ± 1.06 %
same,average increase in fluorescence intensity vs untreated group,S. aureus TISTR 517 [2]; 0.25× MIC,1.88 ± 0.83 fold
same,average increase in fluorescence intensity vs untreated group,S. aureus TISTR 517 [2]; 0.5× MIC,1.89 ± 0.91 fold
same,average increase in fluorescence intensity vs untreated group,S. aureus TISTR 517 [2]; 1× MIC,1.98 ± 0.92 fold
same,average increase in fluorescence intensity vs untreated group,S. aureus TISTR 517 [2]; 2× MIC,3.54 ± 1.64 fold
same,average increase in fluorescence intensity vs untreated group,S. aureus TISTR 517 [2]; 4× MIC,8.49 ± 4.31 fold
same,average fluorescence increase vs untreated group,MRSA strain 2468; 0.25× MIC,5.87 ± 0.72 fold
same,average fluorescence increase vs untreated group,MRSA strain 2468; 0.5× MIC,7.44 ± 0.77 fold
same,average fluorescence increase vs untreated group,MRSA strain 2468; 1× MIC,7.91 ± 0.48 fold
same,average fluorescence increase vs untreated group,MRSA strain 2468; 2× MIC,8.49 ± 0.25 fold
same,average fluorescence increase vs untreated group,MRSA strain 2468; 4× MIC,9.13 ± 0.46 fold

# Source: PMC12113356, “Novel Anti-MRSA Peptide from Mangrove-Derived Virgibacillus chiguensis FN33 Supported by Genomics and Molecular Dynamics” (Marine Drugs, 2025)
